{"source": "patent US9439898B2", "about": "“Methods for novel drug discovery, treatment and selective targeting for gefitinib-resistant non-small-cell lung cancer harboring T790M mutation” (Macau University of Science and Technology, priority 2014, dated 2016)", "key": {"[1]": {"tested_on": "H2228 (EML4-ALK)", "details": "cited from earlier work"}, "[2]": {"tested_on": "H1975(EGFR^L858R+T790M)", "test": "IC50 of sanguinarine against NSCLC cell line H1975", "format": "cell-based", "details": "for IC50: Homo sapiens, NCI-H1975", "from_the_text": "(§1) Among the five cell lines, H1975 is the most sensitive cells to sanguinarine treatment, while A549 is the most resistant one."}, "[3]": {"tested_on": "H2228 (EML4-ALK)", "test": "IC50 of sanguinarine against NSCLC cell line H2228", "format": "cell-based", "details": "Homo sapiens, NCI-H2228", "from_the_text": "as §1"}, "[4]": {"tested_on": "A549 (EGFR^wild-type)", "test": "IC50 of sanguinarine against NSCLC cell line A549", "format": "cell-based", "details": "Homo sapiens", "from_the_text": "as §1"}, "[5]": {"tested_on": "H1650 (EGFR^Exon19 deletion)", "test": "IC50 of sanguinarine against NSCLC cell line H1650", "format": "cell-based", "details": "Homo sapiens, NCI-H1650", "from_the_text": "as §1"}, "[6]": {"tested_on": "HCC827(EGFR^L858R)", "test": "IC50 of sanguinarine against NSCLC cell line HCC827", "format": "cell-based", "details": "Homo sapiens", "from_the_text": "as §1"}, "[7]": {"tested_on": "short EGFR peptide containing the T790M mutation (LIMQL)", "test": "ESI-MS of methionine oxidation in short EGFR peptide", "format": "biochemical", "details": "10-100 μM H2O2 for 10 min", "from_the_text": "The methionine amino acid of a short EGFR peptide containing the T790M mutation could be easily oxidized in a dose-dependent manner under oxidative stress condition. […] A peptide equivalent to the amino acid sequence position from 788 to 792 of EGFR in wild-type (LITQL) and T790M mutant (LIMQL) of EGFR (Sequence acquired from Pubmed database; SEQ. ID. NO. 2/GenBank Accession number of amino acid is NP_005219) is synthesized and both of them are subject to mass spectrometry. In FIG. 4A, ESI-MS detects the standard peptide of LIMQL and oxidized form of the peptide (LIM(O)QL). They are used as standard of the MS pattern of the un-oxidized form of methionine (“M”) and the oxidized form methionine (“M(O)”) for the EGFR short peptide. FIG. 4B-G are ESI-MS results of oxidized methionine in peptide treated with different concentrations of H2O2: FIG. 4B is for H2O2 untreated sample; FIG. 4C is for sample treated with 10 μM H2O2 for 10 min; FIG. 4D is for sample treated with 20 μM H2O2 for 10 min; FIG. 4E is for sample treated with 40 μM H2O2 for 10 min; FIG. 4F is for sample treated with 80 μM H2O2 for 10 min; FIG. 4G is for sample treated with 100 μM H2O2 for 10 min. One of representative data is shown (n=3)."}, "[8]": {"tested_on": "total EGFR, EGFR (pY845) and EGFR (pY1068) in A594 cells", "test": "Western blot of EGFR markers in A594 cells", "format": "cell-based", "details": "H2O2", "from_the_text": "(§2) FIG. 2A is a control. Among the four cell lines, only H1975 cells have additional T790M mutation on EGFR. […] Compared with sanguinarine, effect of H2O2 on suppression of these markers in H1975 cells is relatively less significant. […] The EGFR degradation is also specific in NSCLC cells having T790M mutation by using sanguinarine or H2O2."}, "[9]": {"tested_on": "EGFR construct having double mutation (L858R and T790M) in HEK293 cells", "test": "Western blot of total EGFR in HEK293 cells transfected with EGFR L858R+T790M double mutation", "format": "cell-based", "experimental": "HEK293 cells are used in this example as cell model to be transfected with different constructs of EGFR (wild-type, L858R mutation, Exon 19 deletion, L858R+T790M double mutation). In FIG. 3A, 3 μM saguinarine is added into the HEK293 transfected with different EGFR constructs."}, "[10]": {"tested_on": "total EGFR, EGFR (pY845) and EGFR (pY1068) in H1975 cells", "test": "Western blot of EGFR markers in H1975 cells", "format": "cell-based", "details": "25 μM H2O2", "from_the_text": "as §2"}, "[11]": {"tested_on": "H1975", "test": "Blocking of sanguinarine-induced apoptosis and EGFR degradation in H1975", "format": "cell-based", "details": "H1975, 24 hrs, flow cytometry", "from_the_text": "The fold change of treated group is normalized to untreated group. Results are expressed as mean±S.E.M. The data represent mean±S.E.M. of three independent experiments. (n=3, ***p<0.001). In FIG. 6B, the up-regulation of NOX 3 by sanguinarine is also confirmed on protein level, which is corresponding to the degradation of EGFR. […] One of representative data is shown (n=3). FIG. 6D uses real-time PCR to detect the RNA expression level of Msr A in five NSCLC cell lines. The expression level of Msr in other 5 cell lines is normalized to that of BEAS-2B cell line. The data represent mean±S.E.M. of three independent experiments (n=3, *p<0.05, **p<0.01, ***p<0.001). The result in this example supports that NADPH oxidase and methionine sulfoxide reductase are key enzymes involved in the ROS generation induced by […] in gefitinib-resistant NSCLC. Schematic diagram of how methionine (Met) is oxidized by NADPH oxidase (ROS) and reduced by methionine sulfoxide reductase is shown in FIG. 5. FIG. 7 is a cell model further illustrating how sanguinarine and H2O2 act on the signaling pathway of inducing EGFR degradation in H1975 cells, and thereby leading to apoptosis of the cells. […]"}}, "note": "Like-named read-outs stand apart in the source and are kept apart here."}
{"smiles": "COc1cc2ncnc(Nc3ccc(F)c(Cl)c3)c2cc1OCCCN1CCOCC1", "note": "[Gefitinib]", "values": [{"measurement": "Gefitinib resistance", "setting": "[1]", "value": "resistance"}]}
{"smiles": "C[n+]1cc2c3c(ccc2c2ccc4cc5c(cc4c21)OCO5)OCO3", "note": "[sanguinarine]", "values": [{"measurement": "IC50 value in H1975 fold lower than that of A549", "setting": "[2]; H1975 vs A549", "value": 8, "unit": "fold"}, {"measurement": "IC50 value in H1975 fold lower than that of H1650", "setting": "[2]; H1975 vs H1650", "value": 5.1, "unit": "fold"}, {"measurement": "IC50 value in H1975 fold lower than that of H2228", "setting": "[2]; H1975 vs H2228", "value": 5.4, "unit": "fold"}, {"measurement": "IC50 value in H1975 fold lower than that of HCC827", "setting": "[2]; H1975 vs HCC827", "value": 3, "unit": "fold"}, {"measurement": "IC50", "setting": "[2]; H1975, 24 hrs, read-out: IC50 value Treatment (24 hrs)", "value": "680 ± 240", "unit": "nM"}, {"measurement": "IC50", "setting": "[2]; H1975, 48 hrs, read-out: IC50 value Treatment (48 hrs)", "value": "580 ± 140", "unit": "nM"}, {"measurement": "IC50", "setting": "[3]; H2228, 24 hrs, read-out: IC50 value Treatment (24 hrs)", "value": "3.73 ± 1.23", "unit": "µM"}, {"measurement": "IC50", "setting": "[3]; H2228, 48 hrs, read-out: IC50 value Treatment (48 hrs)", "value": "3.08 ± 1.56", "unit": "µM"}, {"measurement": "IC50", "setting": "[4]; A549, 24 hrs, read-out: IC50 value Treatment (24 hrs)", "value": "5.71 ± 1.73", "unit": "µM"}, {"measurement": "IC50", "setting": "[4]; A549, 48 hrs, read-out: IC50 value Treatment (48 hrs)", "value": "3.83 ± 1.11", "unit": "µM"}, {"measurement": "IC50", "setting": "[5]; H1650, 24 hrs, read-out: IC50 value Treatment (24 hrs)", "value": "3.47 ± 1.31", "unit": "µM"}, {"measurement": "IC50", "setting": "[5]; H1650, 48 hrs, read-out: IC50 value Treatment (48 hrs)", "value": "2.64 ± 1.31", "unit": "µM"}, {"measurement": "IC50", "setting": "[6]; HCC827, 24 hrs, read-out: IC50 value Treatment (24 hrs)", "value": "1900 ± 248", "unit": "nM"}, {"measurement": "IC50", "setting": "[6]; HCC827, 48 hrs, read-out: IC50 value Treatment (48 hrs)", "value": "1060 ± 270", "unit": "nM"}]}
{"smiles": "OO", "note": "[H2O2]", "values": [{"measurement": "oxidation of methionine in short EGFR peptide", "setting": "[7]", "value": "oxidized by ROS in a time- and dose-dependent manner"}, {"measurement": "level of all markers (total EGFR, pY845 EGFR, pY1068 EGFR)", "setting": "[8]", "value": "no significant change"}, {"measurement": "total EGFR level", "setting": "[9]; 200 μM H2O2", "value": "significant reduction"}, {"measurement": "total EGFR level", "setting": "[9]; 300 μM H2O2", "value": "more significant reduction"}, {"measurement": "expression level of total EGFR and pY845 EGFR", "setting": "[10]", "value": "slightly reduced"}]}
{"smiles": "c1ccc2c(c1)[I+]c1ccccc1-2", "note": "[DPI]", "values": [{"measurement": "blocking of apoptosis and degradation of EGFR induced by sanguinarine", "setting": "[11]", "value": "blocks the apoptosis and the degradation of EGFR"}]}
